The values that follow come from patent publication US20100292306A1, “Compositions And Methods For The Treatment Of Muscular Dystrophy” (priority 2005, published 2010).

For data set [1], the system named is mdx triangularis sterni (TS) muscle. Nature of the data set: Histological cross sections of mdx TS muscle (fiber number, diameter, density, myonuclei, centronucleation). In kind it is in vivo, mdx mice. As to conditions: 50 mg/kg daily 30 days from 30 days of age, read at 60 days; p<0.001.
Data set [2] in a line: Observation of viability, side effects and body weight during treatment. Conditions: overall sample of PDTC-treated mice.
The subject of the next data set is nuclear NF-κB activation. Conditions: long term treatment; Messina et al. (2006); cited from earlier work.
The test system of another data set is mdx gastrocnemius muscle. Nature of the data set: Gastrocnemius twitch tension at optimal length.
The subject of a further data set is mdx TS muscle fibers. The experiment in a line: Intracellular recording of resting membrane potential in TS muscle fibers after chronic treatment. The format is in vivo, mdx mice.
In the next data set the test system is nuclear p65 activation. The experiment in a line: TransAM NF-κB ELISA of nuclear p65 activation in mdx costal diaphragm. In kind it is in vivo, mdx mice. As to the method:
Cytosolic and nuclear fractions were obtained from isolated costal diaphragm using techniques that were slightly modified from Kumar and Boriek (2003). The muscles were removed from vehicle and drug-treated euthanized mdx mice at the end of the treatment period, and were flash-frozen and stored at −80° C. for a period of 1 to 4 weeks. The muscles were then thawed and weighed before being homogenized on ice using a mortar and pestle in low salt lysis (LSL) buffer (1 mg muscle wet weight/18 μl solution; in mM: 10 HEPES, 10 KCl, 1.5 MgCl2, 0.1 EDTA, 0.1 EGTA, 1 dithiothreitol (DTT), 0.5 phenylmethylsulfonylfluoride (PMSF); 0.5 mg/ml benzamidine, 4.0 μl/ml protease inhibitor cocktail Sigma #8340 (PIC) to produce the following final concentrations—2.1 μg/ml leupeptin, 3.85 μg/ml aprotinin, 0.416 mM AEBSF (Sigma A8456), 16 μM bestatin, 6 μM pepstatin A, 5.6 μM E64; pH 7.9). To lyse the cells, the ground tissue was then subjected to 2 freeze-thaw cycles (5 min freeze on dry ice followed by thawing at room temperature), and was subsequently vortexed and centrifuged (13,000 rpm, 15 s). The supernatant cytosolic extract was immediately frozen (−80° C.) for subsequent analyses as needed, while the nuclear pellet was washed in 50 μl LSL (2 times) before being re-suspended on ice in a high salt nuclear extraction buffer (in mM: 20 HEPES, 420 NaCl, 1 EDTA, 1 EGTA, 1 DTT, 0.5 PMSF; 25% glycerol, 0.5 mg/ml benzamidine, 4.0 μl/ml PIC; pH 7.9) at a ratio of 4 μl of solution per mg muscle wet weight. Preparations were incubated on ice for 30 min and vortexed for 10 s every 5 min before being centrifuged (13,000 rpm, 6 min) at 4° C. The supernatant nuclear extract was then removed and frozen (−80° C.) for subsequent analyses. Potential contamination of nuclear extracts with cytoplasmic proteins was less than 5%. Protein determinations for each fraction were obtained using the Bradford assay.
The Trans-Am assay (Active Motif; Carlsbad, Calif.) was used to determine nuclear NF-κB activation in nuclear fractions which were applied to the 96 well ELISA plates at 2-20 μg protein. The p65 primary antibody (catalogue number 40096) was used to detect p65 bound to oligonucleotide in vehicle and drug-treated preparations in accordance with kit instructions. A nuclear extract from Jurkat cells was routinely run as a positive control in association with each set of control and experimental samples.
Horizontal dashed lines indicate average levels observed in nondystrophic, vehicle, and UDCA treated preparations as indicated. In each case, percent recovery is determined by dividing the mean improvement observed in the UDCA treated preparation (UDCA-vehicle) from the deficit observed in the vehicle-treated preparation (nondystrophic-vehicle mdx). Mdx mice were treated for 30 days beginning at 1 month of age. Horizontal dashed lines in (A) and (B) representing nondystrophic values were obtained from a cohort of nondystrophic mice at 2 months of age. […] The results were obtained from two separate groups of vehicle and UDCA treated preparations that were assayed using two different 96 well plates. For each plate, the absorbance for each sample was normalized to the average absorbance determined for the vehicle-treated preparations on that plate. […] Millman et al., 2007. N is the number of mice and preparations in each condition. Shown are the means and standard errors. […] indicate p<0.05 and p<0.01, respectively, between vehicle and UDCA treated preparations. […]
On the technique in general: ELISA stands for enzyme-linked immunosorbent assay.

Where [3] appears, read: Series 3 aged mdx mice, P<0.001 vs saline littermates.

“Also recorded” adds a separate entry of the source.

With `S=C(S)N1CCCC1` [PDTC, pyrrolidine dithiocarbamate], the “percent centronucleation” value in data set [1] is recorded as “reduced; also recorded: significantly reduces”. Moreover, the effect on viability result in data set [2] is listed as “no obvious effect”. In addition, the “nuclear NF-κB activation in mdx quadriceps” value in the data set with nuclear NF-κB activation is given as “effectively reduced”. For the same compound, the “improvement in average twitch tension relative to vehicle-injected” value in the data set on mdx gastrocnemius muscle (mature mdx (about 15 months), 50 mg/kg daily, average 72 days) amounted to 52%. Also, in the data set on mdx gastrocnemius muscle (mature mdx mice, average age 15 months at sacrifice), the “twitch tension development” value is on record as “improves”. For the same compound, in the data set with mdx gastrocnemius muscle (mature mdx, just failed to reach statistical significance (p>=0.05)), the “improvement in twitch tension/gm relative to vehicle-injected” value turned out to be 45%. In addition, in the data set on mdx gastrocnemius muscle (young adult (2 month old) mdx), the “increase in twitch tension vs vehicle-treated” value stood at 13% and the “increase in twitch tension/mg muscle weight vs vehicle-treated” value is 11%. In addition, in the data set on mdx gastrocnemius muscle (young adult mdx mice), the “twitch tension development” value is on record as “improves”. In the data set on mdx TS muscle fibers (50 mg/kg ip 48-76 days, mature mdx mice Series 2 and Series 3), the “resting potential of TS fibers” value was “significantly increases”. In the data set on mdx TS muscle fibers (Series 1 daily PDTC, middle and caudal regions, relative to nondystrophic levels), the “resting potential” value is recorded as “completely restored; also recorded: restores”. In the data set with mdx TS muscle fibers (Series 2 daily PDTC), the “increase in resting potential, caudal region” value is “not”. Moreover, the “resting potential, middle region” value with mdx TS muscle fibers (Series 2 daily PDTC, saline −35.8 mV, P<0.05) was −45.4 mV. Further, the “average resting potential, middle region” value in the data set on mdx TS muscle fibers (Series 3 aged mdx mice, N=9 fibers, 2 mice) is −32.2±6.5 mV. Besides, in the data set with mdx TS muscle fibers (setting [3]), the “resting potential, caudal region” value was “approximately −45 mV” and the “resting potential, overall (middle, caudal, cephalad combined)” value was around −40 mV. This compound registered an overall resting potential in the data set on mdx TS muscle fibers (Series 4: administration initiated at 5 months, read at 6.5-13.5 months, N=64 fibers, 3 TS muscles) of -49.3 ± 1.4 mV. The compound further returned an average resting potential in the data set with mdx TS muscle fibers (Series 4: mdx mouse treated between 5 and 13.5 months, N=22 fibers) of −53.3±2.0 mV. In the data set with nuclear p65 activation (mature adult mdx, PDTC 50 mg/kg/day ip 30 days, not significant, p=0.4, N=4 vehicle, N=3 PDTC), the “reduction of nuclear p65 activation” value is 23%. Also, in the data set on nuclear p65 activation (young adult mdx, PDTC 60 days beginning at 30 days of age, N=5 per group), the “effect on nuclear p65 activation” value was “no effect”.
